The source of these data is PubChem BioAssay AID435010 (Broad Institute, 2010).

Results filed as inconclusive are left out. The source made the active and inactive calls. No rule for the calls is given here.

The test deals with Protein RecA (Mycobacterium tuberculosis (strain ATCC 25618 / H37Rv)) (UniProt P9WHJ3). The test is described as follows: Inhibitors of Mycobacterium tuberculosis RecA intein splicing, fluorescence, dose retest (AID 435010). The following applies: cell-free RecA-intein splicing.
Sequence of Protein RecA (Mycobacterium tuberculosis (strain ATCC 25618 / H37Rv)) (P9WHJ3 whole entry, looked up): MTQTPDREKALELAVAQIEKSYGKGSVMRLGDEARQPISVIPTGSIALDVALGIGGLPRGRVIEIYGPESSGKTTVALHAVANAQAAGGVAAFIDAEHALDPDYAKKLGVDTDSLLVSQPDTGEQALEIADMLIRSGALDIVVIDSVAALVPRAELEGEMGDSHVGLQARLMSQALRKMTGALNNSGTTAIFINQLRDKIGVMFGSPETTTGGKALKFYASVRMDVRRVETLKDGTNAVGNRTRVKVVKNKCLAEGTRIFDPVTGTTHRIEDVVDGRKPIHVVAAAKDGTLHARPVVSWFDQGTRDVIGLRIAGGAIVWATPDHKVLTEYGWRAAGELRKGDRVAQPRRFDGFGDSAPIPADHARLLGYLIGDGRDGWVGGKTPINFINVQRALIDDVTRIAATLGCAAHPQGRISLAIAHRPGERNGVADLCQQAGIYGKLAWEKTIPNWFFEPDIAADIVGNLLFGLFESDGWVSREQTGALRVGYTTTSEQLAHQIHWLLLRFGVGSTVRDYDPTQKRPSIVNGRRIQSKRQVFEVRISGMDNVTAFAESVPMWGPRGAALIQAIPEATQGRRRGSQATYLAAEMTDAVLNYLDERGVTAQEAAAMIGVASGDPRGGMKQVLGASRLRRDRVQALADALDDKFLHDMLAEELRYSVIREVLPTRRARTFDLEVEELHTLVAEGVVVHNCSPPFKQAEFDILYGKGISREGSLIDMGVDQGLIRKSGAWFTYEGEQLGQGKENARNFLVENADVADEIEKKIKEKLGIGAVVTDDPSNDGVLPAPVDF

On to `CC1=NN(Cc2ccccc2)C(=O)/C1=C\c1ccc(N(C)C)cc1`, for which the EC50 is > 38 µM (inactive).
As for `O=C(CCCN1C(=O)/C(=C/c2ccccc2)SC1=S)Nc1ccc(O)cc1`, the EC50 is > 38 µM (inactive).
For the compound `N[C@@H]1CCCC[C@H]1N.O=C(O)C(=O)O.[Pt]`, the EC50 was 32.5 µM.
